Assays:
Assay in all cases: NCI-60 anticancer screen (SRB; single dose and five doses)
MDA-MB-468 = format: cell-based, human; conditions: for activity at 10 µM: 48 h, MDA-MB-468, dose of 10 μM, read-out: Growth Percentage
How it was run: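 NCI panel of about 60 human tumor cell lines treated with compound at a single concentration (10μM) for 48 h. Growth measured by SRB protein staining and expressed as percent growth of treated versus untreated control cells.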

RPMI-8226 = conditions: Homo sapiens; for activity at 10 µM: RPMI-8226, 48 h, read-out: Growth Percentage
SR = conditions: Homo sapiens; for activity at 10 µM: 48 h, read-out: Growth Percentage
EKVX = conditions: Homo sapiens; for activity at 10 µM: 48 h, read-out: Growth Percentage
HOP-62 = conditions: Homo sapiens; for activity at 10 µM: HOP-62, 48 h, read-out: Growth Percentage
HOP-92 = conditions: Homo sapiens; for activity at 10 µM: HOP-92, 48 h, read-out: Growth Percentage
NCI-H322M = conditions: Homo sapiens; for activity at 10 µM: 48 h, read-out: Growth Percentage
NCI-H460 = conditions: Homo sapiens; for activity at 10 µM: NCI-H460, 48 h, read-out: Growth Percentage
SW-620 = conditions: Homo sapiens; for activity at 10 µM: SW-620, 48 h, read-out: Growth Percentage
SF-268 = conditions: Homo sapiens; for activity at 10 µM: SF-268, 48 h, read-out: Growth Percentage
SF-295 = conditions: Homo sapiens; for activity at 10 µM: SF-295, 48 h, read-out: Growth Percentage
SF-539 = conditions: Homo sapiens; for activity at 10 µM: SF-539, 48 h, read-out: Growth Percentage
SNB-75 = conditions: Homo sapiens, SNB-75, 48 h, read-out: Growth Percentage
M14 = conditions: Homo sapiens; for activity at 10 µM: M14, 48 h, read-out: Growth Percentage
SK-MEL-28 = conditions: Homo sapiens; for activity at 10 µM: SK-MEL-28, 48 h, read-out: Growth Percentage
UACC-62 = conditions: Homo sapiens; for activity at 10 µM: UACC-62, 48 h, read-out: Growth Percentage
A498 = conditions: Homo sapiens; for activity at 10 µM: A498, 48 h, read-out: Growth Percentage, A498, dose of 10 μM
ACHN = conditions: Homo sapiens; for activity at 10 µM: 48 h, read-out: Growth Percentage
CAKI-1 = conditions: Homo sapiens; for activity at 10 µM: CAKI-1, 48 h, read-out: Growth Percentage
SN12C = conditions: Homo sapiens; for activity at 10 µM: 48 h, read-out: Growth Percentage
PC-3 = conditions: Homo sapiens; for activity at 10 µM: PC-3, 48 h, read-out: Growth Percentage
DU-145 = conditions: Homo sapiens; for activity at 10 µM: DU-145, 48 h, read-out: Growth Percentage
MDA-MB-231/ATCC = conditions: Homo sapiens; for activity at 10 µM: MDA-MB-231, 48 h, read-out: Growth Percentage
HS 578T = conditions: Homo sapiens; for activity at 10 µM: 48 h, read-out: Growth Percentage
BT-549 = conditions: Homo sapiens; for activity at 10 µM: BT-549, 48 h, read-out: Growth Percentage

Cc1[nH]c(=S)sc1C(=O)/C=C/c1ccc([N+](=O)[O-])cc1 [2i, (E)-1-(4-Methyl-2-Thioxo-2,3-Dihydrothiazol-5-yl)-3-(4-Nitrophenyl)Prop-2-En-1-One]
activity at 10 µM (MDA-MB-468; Homo sapiens): -18.9% | GI50 (MDA-MB-468; Homo sapiens, MDA-MB-468, Breast Cancer, five dose): 2.2 µM | CC50 (MDA-MB-468; Homo sapiens, MDA-MB-468, Breast Cancer, five dose, read-out: LC50 (the source's name)): 31.4 µM | TGI (MDA-MB-468; MDA-MB-468, Breast Cancer, five dose): 8 µM | GI50 (RPMI-8226; RPMI-8226): 3.55 µM | activity at 10 µM (RPMI-8226): -7.9% | CC50 (RPMI-8226; RPMI-8226, read-out: LC50): > 100 µM | IC (TGI) (RPMI-8226; RPMI-8226, read-out: TGI): > 100 µM | GI50 (SR): 2.86 µM | activity at 10 µM (SR): -4.81% | CC50 (SR; read-out: LC50): > 100 µM | IC (TGI) (SR; read-out: TGI): > 100 µM | GI50 (EKVX): 16.4 µM | activity at 10 µM (EKVX): 74.7% | CC50 (EKVX; read-out: LC50): 58.1 µM | IC (TGI) (EKVX; read-out: TGI): 30.9 µM | GI50 (HOP-62; HOP-62): 6.43 µM | activity at 10 µM (HOP-62): 21.6% | CC50 (HOP-62; HOP-62, read-out: LC50): 67.7 µM | IC (TGI) (HOP-62; HOP-62, read-out: TGI): 23.2 µM | GI50 (HOP-92; HOP-92): 12.2 µM | activity at 10 µM (HOP-92): 57.6% | CC50 (HOP-92; HOP-92, read-out: LC50): 64.4 µM | IC (TGI) (HOP-92; HOP-92, read-out: TGI): 28 µM | GI50 (NCI-H322M): 11 µM | activity at 10 µM (NCI-H322M): 50.7% | CC50 (NCI-H322M; read-out: LC50): 54.6 µM | IC (TGI) (NCI-H322M; read-out: TGI): 24.5 µM | GI50 (NCI-H460; NCI-H460): 15.9 µM | activity at 10 µM (NCI-H460): 11.3% | CC50 (NCI-H460; NCI-H460, read-out: LC50): 72.5 µM | IC (TGI) (NCI-H460; NCI-H460, read-out: TGI): 34 µM | GI50 (SW-620; SW-620): 3.59 µM | activity at 10 µM (SW-620): -44.8% | CC50 (SW-620; SW-620, read-out: LC50): 44.2 µM | IC (TGI) (SW-620; SW-620, read-out: TGI): 13.9 µM | GI50 (SF-268; SF-268): 15.6 µM | activity at 10 µM (SF-268): 47.4% | CC50 (SF-268; SF-268, read-out: LC50): 67.3 µM | IC (TGI) (SF-268; SF-268, read-out: TGI): 32.4 µM | GI50 (SF-295; SF-295): 16.1 µM | activity at 10 µM (SF-295): 86.1% | CC50 (SF-295; SF-295, read-out: LC50): 56.5 µM | IC (TGI) (SF-295; SF-295, read-out: TGI): 30.2 µM | GI50 (SF-539; SF-539): 2.31 µM | activity at 10 µM (SF-539): -25.2% | IC (TGI) (SF-539; SF-539, read-out: TGI): 7.02 µM | activity at 10 µM (SNB-75): 36% | GI50 (M14; M14): 12.2 µM | activity at 10 µM (M14): 69.5% | IC (TGI) (M14; M14, read-out: TGI): 28.4 µM | GI50 (SK-MEL-28; SK-MEL-28): 13.7 µM | activity at 10 µM (SK-MEL-28): 23.9% | CC50 (SK-MEL-28; SK-MEL-28, read-out: LC50): 52.5 µM | IC (TGI) (SK-MEL-28; SK-MEL-28, read-out: TGI): 26.8 µM | GI50 (UACC-62; UACC-62): 10.5 µM | activity at 10 µM (UACC-62): 47.5% | IC (TGI) (UACC-62; UACC-62, read-out: TGI): 22.4 µM | GI50 (A498; A498): 15.5 µM | activity at 10 µM (A498): 105% | CC50 (A498; A498, read-out: LC50): 55.3 µM | IC (TGI) (A498; A498, read-out: TGI): 29.3 µM | GI50 (ACHN): 11.3 µM | activity at 10 µM (ACHN): 3.88% | CC50 (ACHN; read-out: LC50): 48.4 µM | IC (TGI) (ACHN; read-out: TGI): 23.3 µM | GI50 (CAKI-1; CAKI-1): 13.9 µM | activity at 10 µM (CAKI-1): 31.1% | CC50 (CAKI-1; CAKI-1, read-out: LC50): 52.7 µM | IC (TGI) (CAKI-1; CAKI-1, read-out: TGI): 27.1 µM | GI50 (SN12C): 6.06 µM | activity at 10 µM (SN12C): 18.6% | CC50 (SN12C; read-out: LC50): 44.7 µM | IC (TGI) (SN12C; read-out: TGI): 19.3 µM | GI50 (PC-3; PC-3): 10.3 µM | activity at 10 µM (PC-3): 51.3% | CC50 (PC-3; PC-3, read-out: LC50): > 100 µM | IC (TGI) (PC-3; PC-3, read-out: TGI): 37.3 µM | GI50 (DU-145; DU-145): 3.41 µM | activity at 10 µM (DU-145): 21.4% | CC50 (DU-145; DU-145, read-out: LC50): 34.5 µM | IC (TGI) (DU-145; DU-145, read-out: TGI): 11 µM | GI50 (MDA-MB-231/ATCC; MDA-MB-231): 12 µM | activity at 10 µM (MDA-MB-231/ATCC): 10.8% | CC50 (MDA-MB-231/ATCC; MDA-MB-231, read-out: LC50): 51.5 µM | IC (TGI) (MDA-MB-231/ATCC; MDA-MB-231, read-out: TGI): 24.8 µM | GI50 (HS 578T): 13 µM | activity at 10 µM (HS 578T): 68.1% | CC50 (HS 578T; read-out: LC50): 80.9 µM | IC (TGI) (HS 578T; read-out: TGI): 32.4 µM | GI50 (BT-549; BT-549): 5.04 µM | activity at 10 µM (BT-549): 20.1% | IC (TGI) (BT-549; BT-549, read-out: TGI): 19.3 µM

Cc1ccc(/C=C/C(=O)c2sc(=S)[nH]c2C)cc1 [2j, (E)-1-(4-Methyl-2-Thioxo-2,3-Dihydrothiazol-5-yl)-3-(p-Tolyl)Prop-2-En-1-One]
activity at 10 µM (MDA-MB-468; Homo sapiens): 11.8% | activity at 10 µM (RPMI-8226): 18.9% | activity at 10 µM (SR): 45.5% | activity at 10 µM (EKVX): 55.5% | activity at 10 µM (HOP-62): 54.1% | activity at 10 µM (HOP-92): 98% | activity at 10 µM (NCI-H322M): 62.1% | activity at 10 µM (NCI-H460): 53.1% | activity at 10 µM (SW-620): 35.9% | activity at 10 µM (SF-268): 86.9% | activity at 10 µM (SF-295): 83.4% | activity at 10 µM (SF-539): 43% | activity at 10 µM (SNB-75): 78.1% | activity at 10 µM (M14): 83% | activity at 10 µM (SK-MEL-28): 92.8% | activity at 10 µM (UACC-62): 59.4% | activity at 10 µM (A498): 131% | activity at 10 µM (ACHN): 71.2% | activity at 10 µM (CAKI-1): 43.4% | activity at 10 µM (SN12C): 62.3% | activity at 10 µM (PC-3): 74.8% | activity at 10 µM (DU-145): 54.6% | activity at 10 µM (MDA-MB-231/ATCC): 71.7% | activity at 10 µM (HS 578T): 101% | activity at 10 µM (BT-549): 56.1%
